The source of these data is US20260306460A1, “COMPOSITION FOR REMOVING AND INHIBITING SENESCENT CELLS, AND USES THEREOF” (LIFECEUTIX CO., LTD., priority 2023, published 2026).

Assay [1] relates to naturally aged mice. Description: Anti-aging evaluation in naturally aged mice, Example 31, Table 55.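 Note: Vehicle-dosed control mice received solution alone at matching volume, values compare test-compound-treated aged mice against that control.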 It counts as in vivo, mouse.
The test system of assay [2] is bleomycin-induced pulmonary fibrosis mice. Description: Bleomycin-induced pulmonary fibrosis mice, Example 31, Table 56. Type of assay: in vivo, mouse. Conditions: untreated = 100%. The method, then: (§1) The control group was administered only the solution in the same volume. After the end of drug administration, the method described in each example below was performed. Liver, kidney, skin, knee joint, heart, and femur tissues were collected from mice in which natural aging was induced in the same manner as in Examples 7-2 and 7-6 of WO2023-085787 A1. Lung tissues were collected from mice in which pulmonary fibrosis was induced using the same method as in Example 24-1. Liver tissues were collected from mice in which hepatic fibrosis was induced using the same method as in Example 26, and total RNA was extracted. qRT-PCR was performed and analyzed using the synthesized cDNA. […] The mRNA amounts of p16, MMP3, and IL6 after natural aging was induced were calculated as 100% and compared with the mRNA amounts of p16, MMP3, and IL6 after treatment with the test compound. In addition, an open field test for the analysis of aging-related frailty, agtr1a mRNA analysis for kidney damage and disease evaluation, col1a1 and SDF1 mRNA analysis for skin aging evaluation such as wrinkles/loss of elasticity/hyperpigmentation, col2a1 mRNA analysis for evaluating joint aging such as osteoarthritis, sur2a mRNA analysis for evaluating cardiac aging such as decreased cardiac load resistance, ctsk mRNA analysis for evaluating bone diseases due to aging such as osteoporosis, muscle tissue weight for analyzing sarcopenia, fat tissue weight for analyzing lipoatrophy, and cataract incidence analysis were performed in mice. For cataract incidence analysis, the drug was administered twice a week under the conditions specified above, and biweekly examinations were conducted until death.
The table below quantitatively presents the evaluation results for each item in mice with bleomycin-induced pulmonary fibrosis, untreated and treated with the test compound.

The test system of assay [3] is carbon tetrachloride-induced liver fibrosis mice. The assay can be described thus: Carbon tetrachloride-induced liver fibrosis mice, Example 31, Table 57. It counts as in vivo, mouse. Particulars: CCl4-induced liver fibrosis mice, untreated = 100%. The method, then: as §1
The test system of assay [4] is senescent cells. Description: Viability of senescent cells (CellTiter-Glo), Example 17, Table 13. Conditions: Homo sapiens, read-out: Survival (%). In general terms: In ATP-based viability assays light output follows the ATP content of the culture.
Experimental: Cells induced to undergo senescence by doxorubicin treatment were treated with test compound at designated concentrations and measured using the CellTiter-Glo Luminescent Cell Viability Assay (Promega).
Assay [5] concerns senescent A549 cells. The assay can be described thus: Viability of senescent A549 cells (CellTiter-Glo), Example 18, Table 15. Conditions: Homo sapiens, A549, read-out: Survival (%).
Experimental: Senescence-induced cancer cells treated with doxorubicin were treated with the test compound at designated concentrations, and cell viability was measured using the CellTiter-Glo Luminescent Cell Viability Assay (Promega).

SMILES strings stand for the structures. *1 amine or outer side, *2 acyl side, *3 side chain or, on linkers, in order; H or OH if unused. Where a SMILES comes first, the peptide text is derived from it. Bridges are numbered along the chain shown (N, C = ends). [ ]: non-standard residue; d: D form. The star is where a group is joined. X1 = CC[C@H](C)[C@@H](N[*:1])[C@@H](O)CC(=O)O[C@H](C(=O)[C@H](C)C(=O)[*:2])C(C)C; NMeY = CN[C@@H](Cc1ccc(O)cc1)C(=O)O; dNMeL = CN[C@H](CC(C)C)C(=O)O; Pyruvoyl = CC(=O)C(=O)*

Consider `Cn1cc(C[C@@H](N)C(=O)O)c2ccccc21` [LX-8801, Indoximod], for which the “Femur Ctsk mRNA” value in assay [1] (femur, untreated = 100%) came to 35%. Also, the “Heart Sur2a mRNA” value in assay [1] (heart, untreated = 1.0) is given as 2.9 fold. For the same compound, in assay [1] (joint, untreated = 1.0), the “Joint Col2a1 mRNA” value is listed as 1.7 fold. In addition, the “Kidney Agtr1a mRNA” value in assay [1] (kidney, untreated = 100%) is 72%. Moreover, in assay [1] (liver, untreated = 100%), the “Liver IL6 mRNA” value is given as 33%, the “Liver MMP3 mRNA” value is listed as 63% and the “Liver p16 mRNA” value came to 54%. In addition, the “Open Field Test Time in Center” value in assay [1] (open field test, untreated = 100%) is 205%. In assay [1] (skin, untreated = 1.0), the “Skin Col1a1 mRNA” value amounted to 2.1 Fold and the “Skin SDF1 mRNA” value came out at 2.6 fold. Moreover, the “Muscle Mass” value in assay [1] (untreated 0.64 g) was found to be 0.69 g. The “Fat Mass” value in assay [1] (untreated 0.82 g) is reported as 0.94 g. Besides, in assay [1] (untreated 83%), the Cataract incidence worked out at 59%. For the same compound, the “Lung p16 mRNA” value in assay [2] (lung) is 44 (±3.0) %. Besides, the “Col1a1 mRNA” value in assay [2] was 67 (±4.5) %. Also, the “Liver p16 mRNA” value in assay [3] (liver) is 49 (±4.3) %. In assay [3], the “Col1a1 mRNA” value was 53 (±3.5) %. Further, in assay [4], the viability at 1.1 µM stood at 69.1% and the viability at 10 µM worked out at 1.2%. Moreover, in assay [5], the viability at 1.1 µM worked out at 62.5% and the viability at 10 µM was 8.4%.

As to `CCNCC[C@H](O)CNCCCCNC[C@@H](O)CCNCC` [LX-6516, Ivospemin], in assay [4], the viability at 1.1 µM is 93.3%, the viability at 10 µM stood at 71.1% and the viability at 30 µM came to 31.8%. Also, in assay [5], the viability at 1.1 µM came out at 91.7%, the viability at 10 µM was determined as 79.6% and the viability at 30 µM was found to be 27.6%.

Consider `CN(C)C[C@@H]1CCn2cc(c3ccccc32)C2=C(C(=O)NC2=O)c2cn(c3ccccc23)CCO1` [LX-9339, Ruboxistaurin], for which the viability at 1.1 µM in assay [4] came to 55.6%; in assay [5], 49.2%.

Consider `O=C1[C@H](CC[C@H](O)c2ccc(F)cc2)[C@@H](c2ccc(O)cc2)N1c1ccc(F)cc1` [LX-9321, Ezetimibe], for which, in assay [4], the viability at 1.1 µM was 98.3%, the viability at 10 µM was found to be 86.4%, the viability at 30 µM turned out to be 79.6% and the viability at 90 µM was determined as 19.4%. For the same compound, in assay [5], the viability at 1.1 µM is 108%, the viability at 10 µM was 91.4%, the viability at 30 µM amounted to 65.8% and the viability at 90 µM worked out at 4.1%.

As to `C[C@H]1Oc2cc(cnc2N)-c2c(nn(C)c2C#N)CN(C)C(=O)c2ccc(F)cc21` [LX-5449, Lorlatinib], in assay [4], the viability at 1.1 µM worked out at 89.1%, the viability at 10 µM turned out to be 44.1% and the viability at 30 µM was determined as 8.7%. In addition, in assay [5], the viability at 1.1 µM is 91.3%, the viability at 10 µM worked out at 44.3% and the viability at 30 µM turned out to be 2.4%.

`CCCCC[C@H](O)CC[C@@H]1[C@H]2Cc3cccc(OCC(=O)O)c3C[C@H]2C[C@H]1O` [LX-9713, Treprostinil]: the viability at 1.1 µM in assay [4] is 1.8%; in assay [5], 28.4%.

Take `NS(=O)(=O)NCCNc1nonc1C(=NO)Nc1ccc(F)c(Br)c1` [LX-8804, Epacadostat]: the viability at 1.1 µM in assay [4] was found to be 54.5%. Further, in assay [5], the viability at 1.1 µM was determined as 71.5% and the viability at 10 µM turned out to be 2.1%.

On to `COc1c(C)c2c(c(O)c1C/C=C(\C)CCC(=O)O)C(=O)OC2` [LX-9725, Mycophenolic acid], for which the viability at 1.1 µM worked out at 49.3% in assay [4] and 62.4% in assay [5].

Turning to `COc1ccc(CN2C3CC2CN(c2ccc(-c4cc(OCC(C)(C)O)cn5ncc(C#N)c45)cn2)C3)cn1` [LX-6988, Selpercatinib], in assay [4], the viability at 1.1 µM turned out to be 93.5%, the viability at 10 µM was found to be 53.7% and the viability at 30 µM is 3.7%. Moreover, in assay [5], the viability at 1.1 µM turned out to be 98.2%, the viability at 10 µM came out at 46.3% and the viability at 30 µM worked out at 5.7%.

Turning to `CCOC(=O)C1=CCCC[C@H]1S(=O)(=O)Nc1ccc(F)cc1Cl` [LX-9137, Resatorvid], in assay [4], the viability at 1.1 µM amounted to 90.5%, the viability at 10 µM came out at 43.8% and the viability at 30 µM worked out at 14.6%. Also, in assay [5], the viability at 1.1 µM was found to be 91.8%, the viability at 10 µM worked out at 37.2% and the viability at 30 µM stood at 8.8%.

In the case of `CC(C)(C)OC(=O)NC1CCN(c2ccc(-c3cnc4[nH]cc(C(=O)C(=O)NCCc5ccccn5)c4c3)cn2)CC1` [LX-5341], in assay [4], the viability at 1.1 µM was found to be 99.1%, the viability at 10 µM is 48.5% and the viability at 30 µM came out at 3.5%. For the same compound, in assay [5], the viability at 1.1 µM amounted to 94.6%, the viability at 10 µM turned out to be 55.4% and the viability at 30 µM stood at 13.7%.

As to `CC[C@H](C)[C@H]1NC(=O)[C@@H](NC(=O)[C@@H](CC(C)C)N(C)C(=O)[C@@H]2CCCN2C(=O)C(C)=O)[C@@H](C)OC(=O)[C@H](Cc2ccc(OC)cc2)N(C)C(=O)[C@@H]2CCCN2C(=O)[C@H](CC(C)C)NC(=O)[C@@H](C)C(=O)[C@H](C(C)C)OC(=O)C[C@@H]1O` [LX-6212, Plitidepsin] (Pyruvoyl-P[dNMeL]T[X1]LP[NMeY](Me); ester 3-C), the viability at 1.1 µM in assay [4] is 52.3%. In assay [5], the viability at 1.1 µM turned out to be 75.7% and the viability at 10 µM was 0.9%.

For `C=C(CN1Cc2c(ccc3ccc(-c4cc(NC(C)=O)cc(OC)c4)cc23)C1=O)C(N)=O` [LX-5907], in assay [4], the viability at 1.1 µM turned out to be 95.5%, the viability at 10 µM was 19.5% and the viability at 30 µM turned out to be 1.7%. In addition, in assay [5], the viability at 1.1 µM came to 91.8%, the viability at 10 µM came to 39.4% and the viability at 30 µM came to 14.4%.

Regarding `C#Cc1nc(C(=O)N2[C@@H](CCCC)Cc3cc(C=C)ccc3[C@@H]2c2ccc(NC34CC5CC(CC(C5)C3)C4)cc2)cs1` [LX-5362], the viability at 1.1 µM came to 42.5% in assay [4] and 61.8% in assay [5].

Consider `CC[C@H]1[C@@H](O)[C@@H]2[C@H](CC[C@]3(C)[C@@H]([C@H](C)CCC(=O)O)CC[C@@H]23)[C@@]2(C)CC[C@@H](O)C[C@@H]12` [LX-9732, Obeticholic Acid], for which, in assay [4], the viability at 1.1 µM turned out to be 95.7%, the viability at 10 µM came to 46.4% and the viability at 30 µM worked out at 3.8%. Further, in assay [5], the viability at 1.1 µM came to 97.5%, the viability at 10 µM was determined as 51.3% and the viability at 30 µM amounted to 7.9%.

With `CCc1ccc(CCOc2ccc(CC3SC(=O)NC3=O)cc2)nc1` (centres unmarked) [LX-9422, Pioglitazone], in assay [4], the viability at 1.1 µM was 94.7%, the viability at 10 µM came out at 56.2% and the viability at 30 µM is 6.7%. Besides, in assay [5], the viability at 1.1 µM is 104%, the viability at 10 µM worked out at 62.8% and the viability at 30 µM was 15.8%.

On to `C=CC[C@@H]1/C=C(\C)C[C@H](C)C[C@H](OC)[C@H]2O[C@@](O)(C(=O)C(=O)N3CCCC[C@H]3C(=O)O[C@H](/C(C)=C/[C@@H]3CC[C@@H](O)[C@H](OC)C3)[C@H](C)[C@@H](O)CC1=O)[C@H](C)C[C@@H]2OC` [LX-9314, Tacrolimus], for which, in assay [4], the viability at 1.1 µM turned out to be 84.7%, the viability at 10 µM was 69.2% and the viability at 30 µM came out at 35.3%. Moreover, in assay [5], the viability at 1.1 µM was found to be 92.9%, the viability at 10 µM turned out to be 57.1% and the viability at 30 µM was found to be 14.7%.

Turning to `N[C@@H](CCC(=O)N[C@@H](CS(=O)(=O)CCOP(=O)(N(CCCl)CCCl)N(CCCl)CCCl)C(=O)N[C@@H](C(=O)O)c1ccccc1)C(=O)O` [LX-7463, Canfosfamide], in assay [4], the viability at 1.1 µM was 88.8% and the viability at 10 µM was 32.1%. Also, in assay [5], the viability at 1.1 µM came to 96.5%, the viability at 10 µM was 43.3% and the viability at 30 µM was 0.1%.

For the compound `Nc1cc(F)ccc1NC(=O)c1ccc(CNC(=O)/C=C/c2cccnc2)cc1` [LX-6809, Chidamide], in assay [4], the viability at 1.1 µM was determined as 87.5%, the viability at 10 µM stood at 53.3% and the viability at 30 µM amounted to 17.8%. Besides, in assay [5], the viability at 1.1 µM worked out at 100%, the viability at 10 µM is 63.7% and the viability at 30 µM was 23.9%.

`CCN(CCCOc1ccc2c(Nc3cc(CC(=O)Nc4cccc(F)c4)n[nH]3)ncnc2c1)CCOP(=O)(O)O` [LX-6205, Barasertib]: the viability at 1.1 µM in assay [4] was found to be 3.8%; in assay [5], 57.4%.

Regarding `COc1ccc(C[C@@H](C)[C@@H](C)Cc2ccc(OC)c(OC)c2)cc1OC` [LX-7122, Terameprocol], in assay [4], the viability at 1.1 µM worked out at 109%, the viability at 10 µM turned out to be 94.4% and the viability at 30 µM worked out at 39.3%. In assay [5], the viability at 1.1 µM worked out at 118%, the viability at 10 µM was determined as 71.3% and the viability at 30 µM came out at 15.7%.
